Results taken from patent US9889182B2, “Assisted enzyme replacement therapy” (The Regents of the University of California, priority 2009, dated 2018).
Entries after “also recorded” stand apart in the source; their conditions may differ.

Key:
[1] = test system: FGF-2 binding to cell surface heparan sulfate; assay: Inhibition of biotinylated FGF-2 binding to wild-type CHO cells; set-up: species or system Chinese hamster
Procedure: (§1) Inhibition Experiments—Wild-type CHO cells were grown to confluence on 6-well tissue culture plates, harvested with 10 mM EDTA (37° C., 10 min), washed with phosphate-buffered saline (PBS), and incubated in suspension with biotinylated FGF-2 (10 ng/ml) (25) in F12 medium for 1 h at 4° C. in the presence of increasing concentrations of guanidinoneomycin (100 nM to 1.8 mM). The cells were then stained with streptavidin-phycoerythrin-Cy5 (BD Biosciences) for 20 min, washed three times with PBS, and analyzed by flow cytometry. Cells were also incubated in F12 medium containing 0.5 μM Arg9-BODIPY and increasing concentrations of guanidinoneomycin (1-300 μM) for 1 h at 37° C. and analyzed by flow cytometry.

10T1/2 cells = assay: FACS cellular uptake of BODIPY conjugates in 10T1/2 cells; type: cell-based, mouse
Procedure: 10T1/2 cells, an adherent non-transformed mouse fibroblast cell line, and HeLa cells, a common human cancer cell line, were purchased from ATCC and used before their 20th passage. Both cell lines were cultured in Dulbecco's modified eagle medium containing 10% fetal bovine serum at 37° C. in an 8% CO2 environment. For each experiment, cells were seeded onto 4 cm tissue culture plates (Nunc) and allowed to grow overnight to ˜80% confluency.
Compounds 1-5 identified in Table 1, below (0.5-1 μM), were added to each dish and incubated at 37° C./8% CO2 for 0.5-1 hr. Cells were then washed once in PBS, trypsinized with 500 μl ATV solution (Gibco) for 3 minutes, pelleted in a fixed angle centrifuge for 5 minutes at 5,000×G, then brought up in 1 mL PBS. Each sample was quickly (within 5 minutes) analyzed on a FACS VantageSE cell sorter (Becton-Dickinson) using the 488 nm argon/krypton laser line and a 530 nm band pass emission filter. 2,000-10,000 cells were counted per sample.

Wild-type CHO cells [2] = assay: Inhibition of Arg9-BODIPY binding and uptake; type: cell-based, Chinese hamster; settings: Arg9-BODIPY 0.5 μM, guanidinoneomycin 1-300 μM, 1 h, 37° C.
Procedure: as §1

Wild-type CHO cells [3] = assay: Saporin delivery, CellTiter-Blue viability, wild-type CHO cells; settings: at concentrations up to 100 nM
Procedure: Saporin Delivery—A conjugate of saporin and biotinylated guanidinoneomycin was prepared by mixing streptavidinylated saporin (Advanced Targeting Systems) with biotinylated compound in 1:4 ratio. […] CellTiter-Blue (Promega) was added to the medium and cells were incubated for an additional 4 h to measure viability.

Wild-type CHO cells [4] = assay: Uptake of streptavidin-PE-Cy5 conjugates by flow cytometry, wild-type CHO cells; type: cell-based, Chinese hamster
Procedure: After thawing at room temperature, compounds were diluted into F12 medium to 1 μM. To this solution, streptavidin-PE-Cy5 (BD Biosciences) was added in a 1:1000 dilution to achieve a ratio of 1:3 of fluorophore to biotin. To ensure completion of the biotin-streptavidin reaction, the solution was gently mixed and allowed to incubate at room temperature, shielded from light for 30 min. Following this incubation, compounds were diluted to the desired concentration in growth medium. For experiments done at 4° C. solutions were incubated on ice for 30 min.
After washing with PBS, cells were incubated with the fluorescent-tagged guanidinoneomycin-, neomycin-, or Arg9-biotin for 1 h at 37° C. under an atmosphere of 5% CO2. Cells were washed with PBS, released with EDTA, and analyzed by flow cytometry.

Wild-type CHO cells [5] = assay: Live-cell uptake of fluorescent guanidinoneomycin conjugate (streptavidin-Alexa-488), microscopy; type: cell-based, Chinese hamster; settings: heparin 50 μg/ml
Procedure: Microscopy—Cells were cultured on Lab-Tek chambered coverglass slides (Electron Microscopy Sciences) in F12 medium. After washing with PBS, cells were incubated for 1 h in 1 ml of 60 nM guanidinoneomycin coupled to streptavidin-Alexa-488 (Molecular Probes) at 37° C. Guanidinoneomycin-A488 was prepared by incubating 1 μM guanidinoneomycinbiotin with 6 μg of streptavidin-Alexa-488 in 1 ml of medium. Hoechst 33342 (2 μg/ml; Molecular Probes) was added to cells for the last 20 min of incubation. Cells were washed three times with F12 medium before live cell imaging. Microscopic images were acquired on an Olympus IX70 DeltaVision Spectris Image Deconvolution system, equipped with a temperature and atmospherically controlled stage. Images were deconvolved (10 cycles) using SoftWoRx Explorer Suite software.

WT CHO-K1 cells = assay: Competition of guanidinoneomycin construct uptake by model glycans; type: cell-based, Chinese hamster

Compound: N=C(N)NC[C@@H]1O[C@H](O[C@H]2[C@@H](O)[C@H](O[C@@H]3[C@@H](O)[C@H](NC(=N)N)C[C@H](NC(=N)N)[C@H]3O[C@H]3O[C@H](CNC(=N)N)[C@@H](O)[C@H](O)[C@H]3NC(=N)N)O[C@@H]2CO)[C@H](NC(=N)N)[C@@H](O)[C@@H]1O [guanidinoneomycin, guanidino-neomycin B]
- IC50 ([1]; biotinylated FGF-2 10 ng/ml, 1 h, 4° C.): ~20 µM
- inhibition of transport of BODIPY-Cys(Arg)9 into cells (10T1/2 cells; competition experiment, FACS): effectively inhibits
- inhibition of fluorescent Arg9 binding and uptake (Wild-type CHO cells [2]): incomplete; also recorded: partially block

Compound: saporin
- cell toxicity (Wild-type CHO cells [3]): No cell toxicity

Compound: NC[C@@H]1O[C@H](O[C@H]2[C@@H](O)[C@H](O[C@@H]3[C@@H](O)[C@H](N)C[C@H](N)[C@H]3O[C@H]3O[C@H](CN)[C@@H](O)[C@H](O)[C@H]3N)O[C@@H]2CO)[C@H](N)[C@@H](O)[C@@H]1O [neomycin, neomycin B, reference compound]
- inhibition of FGF-2 binding [1]: did not inhibit binding
- enhancement of cellular uptake upon guanidinylation (10T1/2 cells; relative to autofluorescence, BODIPY conjugates, FIG. 3 and Table 1): approximately 20 fold

Compound: heparin [Heparin (A)]
- heparin concentration blocking uptake of fluorescent guanidinoneomycin conjugate (as low as) (Wild-type CHO cells [4]): ≥ 100 ng/mL
- effect of heparin in incubation medium on uptake of guanidinoneomycin-streptavidin-Alexa-488 (Wild-type CHO cells [5]): completely abolished uptake
- increase of sensitivity of dimeric over monomeric construct to inhibition (WT CHO-K1 cells): 3 fold
- inhibition of uptake of monomeric guanidinoneomycin 1 (WT CHO-K1 cells; at the tested concentrations): showed inhibition
